# Assay results as given in patent US5942523A, “Compounds which are selective antagonists of the human NK3 receptor and their use as medicinal products and diagnostic tools” (Sanofi, priority 1994, dated 1999).
# Residues, ends and D or L forms follow the SMILES beside them.
# Experiments:
# human NK3 receptor = target: T1, human NK3 receptor (Homo sapiens, UniProt P29371); experiment: binding of [^125 I]His[MePhe^7 ]NKB to the cloned human NK3 receptors expressed by CHO cells; details: from comparison of Ki values for human NK3 and other tachykinin receptors
# T1 construct: expressed in transfected cells; host or cells: CHO cells
# T1 sequence (P29371 1-465): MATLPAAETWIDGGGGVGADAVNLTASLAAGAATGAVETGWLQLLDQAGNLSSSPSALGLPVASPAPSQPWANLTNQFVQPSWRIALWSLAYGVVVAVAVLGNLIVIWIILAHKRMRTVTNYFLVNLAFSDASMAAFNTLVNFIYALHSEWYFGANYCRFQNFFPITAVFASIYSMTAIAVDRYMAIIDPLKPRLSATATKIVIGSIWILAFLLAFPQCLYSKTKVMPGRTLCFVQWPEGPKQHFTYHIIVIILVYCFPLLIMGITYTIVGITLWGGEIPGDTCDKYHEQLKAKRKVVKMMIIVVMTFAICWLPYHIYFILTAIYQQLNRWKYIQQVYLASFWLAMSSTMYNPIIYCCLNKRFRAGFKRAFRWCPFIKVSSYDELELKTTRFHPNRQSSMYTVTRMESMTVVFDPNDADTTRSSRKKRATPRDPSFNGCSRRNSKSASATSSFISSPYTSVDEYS
# Experimental: In studies on the binding of a ligand, the inhibition constant Ki is defined by the Cheng-Prusoff equation (in Receptor Binding in Drug Research, eds. R. A. O'BRIEN. Marcel Dekker, New York, 1986): [formula] [L]: ligand concentration Kd: dissociation constant of the ligand,
# The affinity of the compounds of formula (I') for the tachykinin receptors was evaluated in vitro by several biochemical assays using radioligands:
# 3) The binding of [^125 I]His[MePhe^7 ]NKB to the NK3 receptors of rat cerebral cortex, of guinea pig cerebral cortex and of gerbil cerebral cortex as well as to the cloned human NK3 receptors expressed by CHO cells (Buell et al., FEBS Letters, 1992, 299, 90-95).
# The assays were carried out according to X. Emonds-Alt et al. (Eur. J. Pharmacol., 1993, 250, 403-413).
# NK3 receptor [1] = experiment: rotating behavior induced by intrastriatal administration of senktide in gerbils; type: in vivo; details: unilateral application in the gerbil striatum; agonist alone
# Experimental: (§1) The compounds according to the present invention were also evaluated in vivo on two animal models.
# NK3 receptor [2] = experiment: hypertension induced by intravenous or intracerebroventricular injection of senktide in guinea pigs; type: in vivo, guinea pig; details: agonist alone
# Experimental: as §1
SMILES,selectivity / specificity for the human NK3 receptor (human NK3 receptor),rotating behavior (NK3 receptor [1]),hypertension (NK3 receptor [2])
"CN(CC(CCCN1CCC(O)(c2ccccc2)CC1)c1ccc(Cl)c(Cl)c1)C(=O)c1ccccc1.Cl (stereo not shown) [Example 22 of Application EP 474561, N-Methyl-N-[2-(3,4-dichlorophenyl)-5-(4-hydroxy-4-phenylpiperid-1-yl)pentyl]benzamide hydrochloride]",high specificity,,
CSCC[C@H](NC(=O)[C@H](CC(C)C)NC(=O)CNC(=O)[C@H](Cc1ccccc1)N(C)C(=O)[C@H](Cc1ccccc1)NC(=O)[C@H](CC(=O)O)NC(=O)CCC(=O)O)C(N)=O [senktide] (HELM PEPTIDE1{[O=C(O)CCC(=O)[*:2]].D.F.[meF].G.L.M.[am]}$$$$V2.0),,strong contralateral rotations,induces a hypertension
"Cl.O=C1CCC(CCN2CCC(O)(c3ccccc3)CC2)(c2ccc(Cl)c(Cl)c2)CN1Cc1ccccc1 (stereo not shown) [compound A, 5-[2-(4-hydroxy-4-phenylpiperid-1-yl)ethyl]-5-(3,4-dichlorophenyl)-1-benzylpiperid-2-one hydrochloride]",not selective for the human NK3 receptor,,
